Ends that are not written are not given here.
Key:
[1] = test system: gastric emptying; assay: Gastric emptying in HSD rats (3H-3-O-methyl-glucose gavage); type: in vivo; settings: for effect on gastric emptying: 40 minutes
Procedure: Male HSD rats, 180-215 g, were housed with a 12:12 hour light:dark cycle and fasted for 20 hrs (overnight). […] At t=1 min, a solution of 1 mL sterile water containing 5 μCi of ^3H-3-O-methyl-glucose was gavaged by oropharyngeal tube to conscious rats. Blood samples (10 μl) were collected 40 min after gavage and assayed for counts per minute (CPM) in plasma. To eliminate pain during tail vein sampling, 2% Lidocaine (0.1 ml) was injected 3-4 cm from the end of the tail (Gedulin, Jodka et al. Gastroenterology 108: […], 1995). Effects of the test compound were expressed as percent change relative to control, which was calculated as -100*(1-(mean value test rats/mean value controls)). Relative activity was defined as significant if p<0.05 as determined by ANOVA. Where a significant difference existed, test means were compared to the control mean using Dunnett's test (Prism v2.01, GraphPad Software Inc., San Diego, Calif.).

[2] = test system: food intake; assay: Food intake in overnight-fasted NIH/SW mice; type: in vivo; settings: for effect on food intake: 60 min
Procedure: Female NIH/Swiss mice (8-12 weeks old) were group housed with a 12:12 hour light:dark cycle with lights on at 0600. Water and a standard pelleted mouse chow diet were available ad libitum, except as noted. Animals were fasted and housed individually starting at approximately 1500 hrs, 1 day prior to experiment. The morning of the experiment (approx. 0630 hrs), all animals were weighed and divided into experimental groups so as to give the most similar weight distribution between groups. In a typical study, n=10 for the control group and at least 5 for each treatment group. At time=0 min, all animals were given an intraperitoneal injection of vehicle or compound in a volume of 5 ml/kg and immediately given a pre-weighed amount (10-15 g) of the standard chow. […] Significant treatment effects were identified by ANOVA (p<0.05). Where a significant difference existed, test means were compared to the control mean using Dunnett's test (Prism v2.01, GraphPad Software Inc., San Diego, Calif.).

[3] = given peripherally, dose not given

Row | Substance | effect on gastric emptying ([1]; 500 μg/kg intraperitoneal) | effect on gastric emptying (summary) [1, 3] | effect on food intake ([2]; 100 μg/kg intraperitoneal) | effect on food intake ([2]; 500 μg/kg intraperitoneal) | effect on food intake (summary) [2, 3] | effect on gastric emptying ([1]; 200 μg/kg intraperitoneal) | effect on food intake ([2]; 200 μg/kg intraperitoneal)
1 | Neuropeptide Y [NPY] | inactive | completely inactive | inactive | trend toward activity | modest decrease in food intake |  | 
2 | NPY[3-36] | inactive |  | inactive |  |  |  | 
3 | Ac-PYY[22-36] (Ac-ASLRHYLNLVTRQRY; ends and bridges not checked; listed as Homo sapiens) |  |  |  |  |  | inactive | inactive

Reference: US8273713B2 (Amylin Pharmaceuticals, LLC, priority 2000, dated 2012)
